Laboratory results from patent US20120010075A1 (priority 2009, published 2012).
Like-named read-outs stand apart in the source and are kept apart here.

How the values were obtained:
Phytophthora infestans = format: in vivo, Phytophthora infestans on tomato; conditions: applied 24 h before inoculation, assessed 7 days after inoculation
[1] = system: Leptosphaeria nodorum (LEPTNO); assay: In vitro fungitoxicity of hydrazones with and without copper towards Leptosphaeria nodorum (Example 26); format: cell-based; conditions: 72 h at 25° C.; for inhibition of growth at 0.05 µg/mL: Parastagonospora nodorum, 72 h, copper-minus medium, read-out: LEPTNO % Inhn. Minus Copper Observed
[2] = hydrazone 50 ppm with 50 μM CuCl2.2H2O, tomato late blight
[3] = test compound Concn. 0.05 μg/mL
[4] = copper-plus medium (CuCl2 10 μM), test compound Concn. 0.05 μg/mL
[5] = hydrazone 50 ppm + 50 μM CuCl2.2H2O, tomato
[6] = compound 0.05 μg/mL, copper-plus medium (CuCl2.2H2O)

SMILES	TLB % Control (Phytophthora infestans; [2]) [%]	inhibition of growth at 0.05 µg/mL [1, 3] [%]	LEPTNO % Inhn. Plus Copper Observed [1, 4] [%]	melting point [°C]	TLB % Control (Phytophthora infestans; [5]) [%]	inhibition of growth at 0.05 µg/mL ([1]; compound 0.05 μg/mL) [%]	LEPTNO % Inhn. Plus Copper Observed [1, 6] [%]
O=C(N/N=C/c1ccc(Cl)c(Cl)c1O)c1ccc(F)cc1 [Example 357]	93.0	56.7	97.4	244 to 246			
Cc1cccc(C(=O)N/N=C/c2cc(Cl)cc(Br)c2O)c1O [Example 165]				218 to 221	88.4	14.9	98.4
C/C(=N\NC(=O)c1ccc(Br)cc1)c1cc(Cl)ccc1O [Example 512]	59.0	7.4	97.8	269 to 271			
O=C(N/N=C/c1cc(C(F)(F)F)cc(C(F)(F)F)c1O)c1cccc(F)c1 [Example 334]	98.0	10.9	97.8	240 to 242			
COc1ccc(/C(C)=N/NC(=O)c2cccc(C)c2)c(O)c1 [Example 282]				184 to 185	52.0	0	94.7
Cc1cccc(O)c1C(=O)N/N=C/c1cc(Cl)cc(Cl)c1O [Example 485]	95.0	8	96.7	217 to 219			
C/C(=N\NC(=O)c1ccccc1)c1cccc(Cl)c1O [Example 492]	93.0	0	98.1	202 to 203			
Cc1cccc(C(=O)N/N=C/c2c(O)cccc2Cl)c1 [Example 398]	98.0	5.4	94.7	245 to 248			
O=C(N/N=C/c1cccc(Cl)c1O)c1ccccc1O [Example 431]	91.0	8.5	95.1	266 to 268			
COc1ccc(O)c(/C(C)=N/NC(=O)c2ccccc2C)c1 [Example 262]				146 to 155	4.6	3.1	94.0
O=C(N/N=C/c1cc(C(F)(F)F)ccc1O)c1cccc(Cl)c1 [Example 439]	96.0	0	100.0	187 to 197			
N#Cc1cccc(C(=O)N/N=C/c2cc(Cl)cc(Cl)c2O)c1 [Example 309]	74.0	5.5	97.4	252 to 271			
Cc1ccc(C(=O)N/N=C/c2cc(Cl)cc(Cl)c2O)c(C)c1 [Example 27]				246 to 247	43.3	16.5	97.9
O=C(N/N=C/c1cc(Cl)cc(Cl)c1O)c1cc(Cl)cc(Cl)c1 [Example 79]				248 to 249	84.4	12.2	97.1
C/C(=N\NC(=O)c1ccccc1C)c1ccc(Cl)cc1O [Example 252]				214 to 215	28.0	7.8	98.4
COc1ccc(/C(C)=N/NC(=O)c2ccccc2)c(O)c1 [Example 280]				211 to 213	88.0	2.2	98.2
C/C(=N\NC(=O)c1ccccc1Cl)c1cc(F)cc(F)c1O [Example 576]	90.0	0.7	97.9	205 to 209			

SMILES	TLB % Control (Phytophthora infestans; [2]) [%]	inhibition of growth at 0.05 µg/mL [1, 3] [%]	LEPTNO % Inhn. Plus Copper Observed [1, 4] [%]	melting point [°C]	TLB % Control (Phytophthora infestans; [5]) [%]	inhibition of growth at 0.05 µg/mL ([1]; compound 0.05 μg/mL) [%]	LEPTNO % Inhn. Plus Copper Observed [1, 6] [%]
Cc1ccc(C(=O)N/N=C/c2cc(Cl)cc(Br)c2O)c(O)c1 [Example 434]	100.0	25.6	97.4	262 to 268			
COc1cccc(O)c1/C=N/NC(=O)c1ccccc1 [Example 237]				215 to 216	45.0	0	91.8
C/C(=N\NC(=O)c1cc2ccccc2cc1O)c1cc(Cl)cc(Cl)c1O [Example 564]	1.3	17.4	94.2	312 to 315			
C/C(=N\NC(=O)c1cccc(C)c1)c1cc(Br)cc(Br)c1O [Example 541]	93.0	0	97.5	236 to 238			
COc1cc(O)c(/C(C)=N/NC(=O)c2ccc(Cl)cc2)c(OC)c1 [Example 568]	61.0	8	94.3	136 to 140			
COc1cc(O)c(/C(C)=N/NC(=O)c2ccccc2C)c(OC)c1 [Example 584]	7.6	3	11.8	269 to 274			
C/C(=N\NC(=O)c1ccc(C(F)(F)F)cc1)c1cc(C(F)(F)F)ccc1O [Example 536]	24.0	21.1	93.4	228 to 234			
Cc1ccc(C(=O)N/N=C(\CCc2ccccc2)c2ccccc2O)c(C)c1 [Example 31]				143 to 145	33.3	2.2	89.0
C/C(=N\NC(=O)c1ccccc1)c1cccc([N+](=O)[O-])c1O [Example 268]				215 to 224	31.0	1.2	98.7
O=C(N/N=C(\CCc1ccccc1)c1ccccc1O)c1ccccc1Cl [Example 49]				173 to 177	0.7	14.6	97.1
Cc1cccc(C(=O)N/N=C/c2cc(C(F)(F)F)cc(Cl)c2O)c1 [Example 321]	100.0	11.7	96.6	204 to 206			
C/C(=N\NC(=O)c1ccc(C)cc1)c1cccc(Cl)c1O [Example 495]	91.0	0	97.3	195 to 200			
C/C(=N\NC(=O)c1ccccc1C)c1cc(Cl)ccc1O [Example 505]	46.0	7.1	97.3	192 to 193			
C/C(=N\NC(=O)c1ccccc1O)c1cccc([N+](=O)[O-])c1O [Example 525]	78.0	5.4	97.4	274 to 283			
C/C(=N\NC(=O)c1ccc(Cl)cc1)c1cccc([N+](=O)[O-])c1O [Example 274]				241 to 251	89.0	0	96.3
C/C(=N\NC(=O)c1ccc(C(F)(F)F)cc1)c1cccc(Cl)c1O [Example 501]	89.0	0.5	98.0	250 to 256			
